Test results published in patent publication US9597297B2, “Combination of pilocarpin and methimazol for treating Charcot-Marietooth disease and related disorders” (PHARNEXT, priority 2008, dated 2017).
“Also recorded” adds a separate entry of the source.

Assays:
[1] = test system: CMT transgenic rat model (PMP22 transgenic rats); experiment: Bar test in CMT transgenic rats; type: in vivo; details: for time of treatment at which bar test effect becomes statistically significant: force-feeding; for bar test performances: female CMT TG rats vs TG placebo, methimazole 0.35 mg/kg, pilocarpine 0.2 mg/kg as printed in b214
Text: The inventors have tested compounds and combinations for therapeutic effect in CMT transgenic rat model, a hemizygous PMP22 transgenic rats bearing three additional copies of mouse PMP22 gene show signs of demyelination in peripheral and cranial nerves, (Sereda et al., 1996; Grandis et al., 2004). At the mRNA level, an average 1.6-fold overexpression of PMP22 in CMT rats correlates with the clinical phenotype. A putative threshold level of PMP22 overexpression at which the wild type gene turns into a disease gene represents an obvious “target” to reach by treatment aimed at reducing PMP22 gene expression.
The inventors have tested the compounds and combinations for therapeutic effect in a rat model. The experimental groups are formed with young rats of both genders separately. The rats are assigned to the groups following randomization schedule based on the body weight. In some experiments the randomization is based on the performances of the rats in the bar test. Both genders are represented by separate control littermates groups that are numerically equal or bigger than the treatment groups.
The rats are treated chronically with drugs—force fed or injected by Alzet osmotic subcutaneous pump (DURECT Corporation Cupertino, Calif.), depending on each drug bioavailability during 3 or 6 weeks.
Each three or four weeks the animals are subjected to a behavioural test. Each test is conducted by the same investigator in the same room and at the same time of the day; this homogeneity is maintained throughout entire experiment. All treatments and genotype determination are blinded for the investigator. “Bar test” and “Grip strength” has been mainly used to access the performance throughout study. The schedule of the bar test may change as the animal growth (in order to avoid the bias due to the learning, for example).
The bar test evaluates rats' ability to hold on a fix rod. […] The rat is placed on its four paws on the middle of the rod (diameter: 2.5 cm; length: 50 cm; 30 cm above the table). Trials are performed consecutively; the number (5 or 10) and the duration (30 or 60 sec) of trials in our experiments have been depending on batches of the animals. This variability in the testing has been introduced in order to determine the schedule appropriated to the best detection of the motor deficiency in the CMT rats in the course of the experiments.
Performance indices are recorded on each session: • The number of trials needed to hold for 60 sec or 30 sec on the rod. • The mean time spent on the bar (i.e. the fall latency) in each trial and the average on the session. In the experimental procedures the session ends after the rat has stayed two times for a cut-off time, i.e. 30 or 60 s, on the bar. A performance of the cut-off time (30 s or 60 s) is assigned to trials not completed. • The number of falls.

[2] = test system: CMT transgenic rat model (PMP22 transgenic rats); experiment: Post-mortem weighing of sciatic nerves and soleus muscles in CMT rats; type: in vivo; details: CMT female rats treated 20 weeks
Text: FIG. 5: The analysis of the post-mortem samples obtained from the animals treated with drugs as described in the legend to FIG. 3. The rats treated with drugs and placebo during 20 weeks, were deeply anesthetized and the entire sciatic nerves and soleus muscles were carefully sampled and weighted. The graphs present the 30 mean values of these measurements.
Sciatic nerves are excised and used for weighting as well as for molecular biology and/or biochemical essays. (RT-Q-PCR for PMP22 mRNA and Western blots for myelin proteins quantifications; Cayman's EIA kits—for biochemical markers such as arachidonic acid metabolites, HPLC quantification for steroids and amines, ELISA for CNTF, IL-6 etc.) performed according to generally used protocols and for analytical procedures (drug concentrations measures).
The hind limbs muscles (soleus) are sampled, weighted, snap-frozen and preserved at −80° C. until analysis (the same as for sciatic nerves).

PMP22 mRNA = PMP22 mRNA level by RT-Q-PCR in RT4-D6P2T schwannoma cells; type: cell-based, rat; details: 8 hrs, Methimazole 0.1 nm, Pilocarpine 0.001 nm, alone or combined
Description: Rat schwannoma RT4-D6-P2T cell line (ATCC #CRL2468™) is defrosted in DMEM (ATCC #30-2002) and 10% FCS (invitrogen #10106). The cells are maintained at 37° C. in a humidified incubator, in an atmosphere of air (95%.)—CO2 (5%). At passage n°4, cells are dissociated by trypsinization (+1 ml of Trypsin-EDTA, 0.25%-0.53 mM; Invitrogen) 5 to 15 min at 37° C. The reaction is stopped by addition of DMEM containing 10% of foetal bovine serum (FBS). […] are counted in a Neubauer cytometer using the trypan blue exclusion test (Sigma). The suspension is triturated with a 10 ml pipette and the cells are then centrifuged at 350×g for 10 min at room temperature. […]
Quantitative RT-PCR is used to compare the levels of PMP22 mRNA after drug stimulation, relative with housekeeping RPS9 mRNA in RT4-D6P2T cell line.
8 hrs after drug incubation, cells are rinsed with cold sterilized PBS, total RNAs from each cell sample are extracted and purified from SC using the Qiagen RNeasy micro kit (Qiagen #74004). Nucleic acids are quantified by Nanodrop spectrophotometer using 1 μl of RNA sample. The RNA integrity is determined through a BioAnalyzer (Agilent) apparatus. […]
In another experiment drugs (listed in Table 1) are incubated with rat schwannoma cell line during 8 hrs and PMP22 mRNA expression level was quantified by RT-Q-PCR.

| SMILES | time of treatment at which bar test effect becomes statistically significant ([1]; CMT TG rats) [weeks] | bar test performances ([1]; daily forced feeding) | bar test performances ([1]; daily forced feeding, listed as Methimazole) | mass of sciatic nerves and soleus muscles [2] | PMP22 mRNA level of expression (PMP22 mRNA) | bar test performance compared with WT placebo group ([1]; CMT TG rats, daily forced feeding) |
| --- | --- | --- | --- | --- | --- | --- |
| Cn1cc[nH]c1=S [methimazole, 1-methyl-3H-imidazole-2-thione] | 8 | significantly more performing | improve bar test performances | completely corrected | no significant activity | – |
| CC[C@@H]1C(=O)OC[C@@H]1Cc1cncn1C [pilocarpine, (3S,4R)-3-ethyl-4-[(3-methylimidazol-4-yl)methyl]oxolan-2-one] | 8 | improve bar test performances; also recorded: significantly more performing | – | smaller than that of methimazole | no significant activity | no more significantly differs from that of the WT placebo group |
